Reference: US20130079353A1, “FLUOROQUINOLONES FOR THE TREATMENT AND/OR PROPHYLAXIS OF INFLAMMATORY DISEASES” (priority 2009, published 2013)

What was measured:
[1] = test system: IL-2; test: IL-2 gene expression, quantitative real-time SYBRGreen PCR (vs GAPDH); assay type: cell-based, human
Protocol: (§1) Quantitative real-time-PCR was performed using the Power SYBR Green PCR Master Mix (Applied Biosystems). Gene expression was analyzed using the 7500 Real-Time PCR Systems and Sequence Detection Software version 1.2.2 (Applied Biosystems). IL-2 and IL-4 gene expression levels were normalized using glyceraldehyde-3-phosphat dehydrogenase (GAPDH) expression levels as an endogenous reference.
(§2) The mean induction ratios were calculated.
(§3) Total cellular RNA was isolated and reverse-transcribed. Expression of IL-2 (see FIG. 4A) and IL-4 (see FIG. 4B) was analyzed using quantitative real-time SYBRGreen PCR. IL-2 and IL-4 expression levels were estimated by gene expression ratio between IL-2 or IL-4 gene and GAPDH genes.
Total cellular RNA was isolated and reverse-transcribed. Expression of IL-2 (see FIG. 5A) and IL-4 (see FIG. 5B) was analyzed using quantitative real-time SYBRGreen PCR. IL-2 and IL-4 expression levels were estimated by gene expression ratio between IL-2 or IL-4 gene and GAPDH genes. […]
(§4) Next, the cells were activated via plate-bound anti-CD3 antibody for 1 h and the gene expression levels for IL-4 (sec FIGS. 6A and 13), IL-2 (see FIGS. 6C and D) and CD95L (see FIGS. 6E and F) were assayed. […] A clear inhibition of TCR induced up-regulation of IL-4, IL-2 and CD95L was detected.

[2] = test system: complex II (succinate dehydrogenase); test: Activity of complex II in treated T-cells; assay type: cell-based; conditions: prolonged, long-term treatment of pre-activated human T-cells
Protocol: (§5) Activities of the respiratory chain single enzyme complexes I and II, as well as of citrate synthase, were measured as described previously with minor modifications. Ciprofloxacin-treated cells were depleted of dead cells via Biocoll (Biochrom) gradient centrifugation. The cell number in different batches of ciprofloxacin-treated cells was equalized. For measurement of the enzymatic activities, samples were prepared as described previously with minor modifications. 4×10^7 cells were washed with PBS, shock-frozen in liquid nitrogen and thawed on ice. Next, cells were permeabilized by 15 min incubation with 1 ml of 0.015% digitonin (w/v) in respiratory chain (RC) buffer (250 mM sucrose, 50 mM KCl, 5 mM MgCl2, 20 mM Tris-HCl, pH 7.4), washed with RC buffer and centrifuged at 8 000 rpm for 5 min at 4° C. For a single data point the activity measurement was performed three times in triplicates and the average value was calculated. Steady state activity was recorded in a 96-well plate spectrophotometer using a thermostated chamber and a final volume of 300 μl. Enzymatic activities of complex I and complex II were recorded as NADH oxidation at 340-400 nm and as succinate oxidation at 610-750 nm, respectively. Citrate synthase activity was detected after two additional freeze/thaw cycles as 5,5′-dithiobis-(2-nitrobenzoic acid) (DTNB) reduction at 412 nm.

[3] = test system: IL-2; conditions: short-term (up to 96 hours) or simultaneous treatment, PHA-activated human T-cells; cited from earlier work
[4] = test system: IL-4; test: IL-4 gene expression, quantitative real-time SYBRGreen PCR (vs GAPDH); assay type: cell-based, human
Protocol: as §1, §2, §3
Total cellular RNA was isolated and reverse-transcribed. Expression of IL-2 (see FIG. 5A) and IL-4 (see FIG. 5B) was analyzed using quantitative real-time SYBRGreen PCR. IL-2 and IL-4 expression levels were estimated by gene expression ratio between IL-2 or IL-4 gene and GAPDH genes. Data are shown as fold increase of induction of gene expression, where anti-CD3 activated cells are compared with respective unstimulated controls.
as §4

[5] = test system: IL-4; test: Activation-induced IL-4 secretion, ELISA; assay type: cell-based, human; conditions: 50 μg/ml for 7 days, anti-CD3 (30 μg/ml) and anti-CD28 (1 μg/ml) for 16 h
Protocol: IL-2 and IL-4 concentrations were measured by enzyme-linked immunosorbent (ELISA) assay (BD OptEIA Set Human IL-2/IL-4, Becton Dickinson). Resting peripheral human T-cells (“day 0” T-cells)+/−rotenone (10 μg/ml, 15 min pre-treatment) were stimulated with plate-bound anti-CD3 monoclonal antibody (30 μg/ml) and soluble anti-CD28 monoclonal antibody (1 μg/ml) for 4 h. Next, the supernatants were cleared by centrifugation and the measurements were performed according to the manufacturer's instructions.
Human peripheral blood T-cells from healthy donors or patients with atopic dermatitis were pre-activated by PHA treatment and subsequently cultured for 7 days in presence or absence of 50 μg/ml cipro. Next, T-cells were activated via plate-bound anti-CD3 antibody (30 μg/ml) and soluble anti-CD28 antibody (1 μg/ml) for 16 h. Supernatants were harvested and secreted amounts of IL-4 were measured by ELISA. […] Therefore, inhibition of IL-4 transcription is not compensated by translational or post translational mechanisms.

[6] = test system: PHA-activated human T-cells; conditions: short-term (up to 96 hours) or simultaneous treatment; cited from earlier work
[7] = test system: activation-induced ROS generation in pre-activated primary human T-cells; test: Activation-induced ROS generation, H2DCF-DA staining and FACS; assay type: cell-based; conditions: PHA-pre-activated T-cells, 7 days of Cipro treatment, plate-bound anti-CD3 (30 μg/ml), 1 h after activation
Protocol: Cells were stained with H2DCF-DA (5 μM) for 30 min. Next, cells were then divided and stimulated with either plate-bound anti-CD3 antibody (30 μg/ml) or PMA (10 ng/ml). Treatment was terminated by ice-cold PBS and ROS generation was determined by FACS analysis. If not stated otherwise, ROS generation was quantified as the increase in mean fluorescence intensity (MFI), calculated according to the following formula: increase in
MFI(%)=[(MFIstimulated−MFIunstimulated)/MFIunstimulated]×100 9.
After PHA-pre-activated and 7 days of Cipro treatment, T-cells were stained with redox sensitive fluorescent probe H2DCF-DA (20 min, 37° C.) and subsequently activated via plate-bound agonistic anti-CD3 antibody (30 μg/ml). The level of activation-induced ROS was assessed by FACS measurement 1 h after activation and calculated as percentage increase in MFI (untreated control set to 100%).

[8] = test system: mitochondrial respiratory complex I (NADH-quinone oxidoreductase); test: Activity of mitochondrial respiratory complex I in treated T-cells, real-time spectrophotometry; assay type: cell-based, human; conditions: PHA-pre-activated T-cells treated 7 days; 15 min, 20° C.; normalized to total protein content; three donors
Protocol: as §5, with “Next, cells were permeabilized by 15 min incubation with 1 ml of 0.015% digitonin (w/v) in respiratory chain (RC) buffer (250 mM sucrose, 50 mM KCl, 5 mM MgCl2, 20 mM Tris-HCl, pH 7.4), washed with RC buffer and centrifuged at 8 000 rpm for 5 min at 4° C.” left out
PHA-pre-activated and treated T-cells (see Example 2.1) were shock-frozen in liquid nitrogen. Next, activity of mitochondrial respiratory complex I (NADH-quinone oxidoreductase) was measured by real-time spectrophotometry. […]

[9] = test system: citrate synthase; test: Activity of citrate synthase in treated T-cells; assay type: cell-based; conditions: prolonged, long-term treatment of pre-activated human T-cells
Protocol: as §5

[10] = test system: CD95L; test: CD95L gene expression, quantitative real-time SYBRGreen PCR (vs GAPDH); assay type: cell-based, human; conditions: T-cells from patients with atopic dermatitis, 50 μg/ml for 7 days, anti-CD3 for 1 h
Protocol: as §1, §4

[11] = PHA-pre-activated primary human T-cells, different amounts of ciprofloxacin for 7 days, not restimulated
[12] = T-cells from patients with atopic dermatitis, 50 μg/ml for 7 days, anti-CD3 for 1 h

## O=C(O)c1cn(C2CC2)c2cc(N3CCNCC3)c(F)cc2c1=O [ciprofloxacin, 1-cyclopropyl-6-fluoro-1,4-dihydro-4-oxo-7-(1-piperazinyl)-3-quinoline-carboxylic acid]
[1]; [11]
  basal IL-2 expression: increases basal IL-2 and IL-4 expression slightly
[1]; [12]
  anti-CD3-induced increase in IL-2 transcripts levels: clearly blocked
[2]
  activity of complex II (succinate dehydrogenase): unaffected
[3]
  IL-2 secretion: enhanced
[4]; 5 healthy donors, 50 μg/ml for 7 days, P<0.05 (0.03125)
  basal IL-4 levels, treated PHA-pre-activated T cells vs "day 0" T cells: significant down-regulation
[4]; 7 patients with atopic dermatitis, 50 μg/ml for 7 days, P<0.01 (0.00781)
  basal IL-4 levels, treated PHA-pre-activated T cells vs "day 0" T cells: significant down-regulation
[4]; [11]
  basal IL-4 expression: increases basal IL-2 and IL-4 expression slightly
[4]; [12]
  anti-CD3-induced increase in IL-4 transcripts levels: clearly blocked
[5]; T-cells from healthy donors
  CD3/CD28 triggering-induced IL-4 secretion: blocked
[5]; T-cells from patients with atopic dermatitis
  CD3/CD28 triggering-induced IL-4 secretion: blocked
[6]
  proliferation of PHA-activated human T-cells: enhanced
[7]
  activation-induced ROS generation: blocks
[8]
  activity of mitochondrial respiratory complex I: impaired activity
[9]
  activity of citrate synthase: unaffected
[10]
  anti-CD3-induced increase in CD95L transcripts levels: clearly blocked
